{
  "source": "paper PMC5218480",
  "about": "(PLoS ONE, 2017)",
  "tested_on": "MV-4-11 cells",
  "test": "Gene expression microarray analysis (Affymetrix PrimeView) and GSEA",
  "format": "cell-based, human",
  "parameters": "RFU PODN (11730768_x_at) / Fold change /veh PODN (11730768_x_at) / RFU LINC00158 (11744669_a_at) / Fold change /veh LINC00158 (11744669_a_at) / RFU DUSP10 (11751237_a_at) / Fold change /veh DUSP10 (11751237_a_at) / RFU ID3 (11757404_x_at) / Fold change /veh ID3 (11757404_x_at) / RFU PLEKHG5 (11737974_s_at) / Fold change /veh PLEKHG5 (11737974_s_at) / RFU LRRC4B (11730491_at) / Fold change /veh LRRC4B (11730491_at) / RFU GIMAP4 (11747438_a_at) / Fold change /veh GIMAP4 (11747438_a_at) / RFU KRT8 (11758183_x_at) / Fold change /veh KRT8 (11758183_x_at) / RFU CNN1 (11734310_a_at) / Fold change /veh CNN1 (11734310_a_at) / RFU VPS37D (11726825_at) / Fold change /veh VPS37D (11726825_at) / RFU C10orf10 (11716522_x_at) / Fold change /veh C10orf10 (11716522_x_at) / RFU KIR2DL2 /// KIR2DL4 /// KIR2DL5A /// KIR2DL5B /// KIR2DS1 /// KIR2DS2 /// KIR2DS3 /// KIR2DS4 /// KIR3DL3 /// KIR3DL3 /// KIR3DS1 (11738374_at) / Fold change /veh KIR2DL2 /// KIR2DL4 /// KIR2DL5A /// KIR2DL5B /// KIR2DS1 /// KIR2DS2 /// KIR2DS3 /// KIR2DS4 /// KIR3DL3 /// KIR3DL3 /// KIR3DS1 (11738374_at) / RFU C1QL1 (11718748_at) / Fold change /veh C1QL1 (11718748_at) / RFU TMPRSS4 (11747572_a_at) / Fold change /veh TMPRSS4 (11747572_a_at) / RFU HAMP (11756126_x_at) / Fold change /veh HAMP (11756126_x_at) / RFU RNFT2 (11725882_a_at) / Fold change /veh RNFT2 (11725882_a_at) / RFU NR4A2 (11747474_a_at) / Fold change /veh NR4A2 (11747474_a_at) / RFU ABCC12 (11746883_a_at) / Fold change /veh ABCC12 (11746883_a_at) / RFU TMEM136 (11760407_x_at) / Fold change /veh TMEM136 (11760407_x_at) / RFU CLDN22 /// WWC2 (11732394_at) / Fold change /veh CLDN22 /// WWC2 (11732394_at) / RFU HLA-DPB1 (11760878_x_at) / Fold change /veh HLA-DPB1 (11760878_x_at) / RFU SPINT1 (11716480_a_at) / Fold change /veh SPINT1 (11716480_a_at) / RFU GAP43 (11754022_s_at) / Fold change /veh GAP43 (11754022_s_at) / RFU A4GNT (11735810_at) / Fold change /veh A4GNT (11735810_at) / RFU PRB3 (11715151_x_at) / Fold change /veh PRB3 (11715151_x_at) / RFU TUBB4B (11761932_at) / Fold change /veh TUBB4B (11761932_at) / RFU CAPN14 (11732068_a_at) / Fold change /veh CAPN14 (11732068_a_at) / RFU TMCC2 (11721928_a_at) / Fold change /veh TMCC2 (11721928_a_at) / RFU IRGQ (11745062_a_at) / Fold change /veh IRGQ (11745062_a_at) / RFU FAM174B (11720279_a_at) / Fold change /veh FAM174B (11720279_a_at) / RFU TMPRSS4 (11748680_a_at) / Fold change /veh TMPRSS4 (11748680_a_at) / RFU FAM212B (11763350_a_at) / Fold change /veh FAM212B (11763350_a_at) / RFU PLEKHG5 (11743358_a_at) / Fold change /veh PLEKHG5 (11743358_a_at) / RFU ZSCAN30 (11745921_a_at) / Fold change /veh ZSCAN30 (11745921_a_at) / RFU CMKLR1 (11741424_a_at) / Fold change /veh CMKLR1 (11741424_a_at) / RFU LOC101060620 /// MAPK8IP1 (11723275_at) / Fold change /veh LOC101060620 /// MAPK8IP1 (11723275_at) / RFU SPTSSB (11747773_x_at) / Fold change /veh SPTSSB (11747773_x_at) / RFU PRSS12 (11739890_at) / Fold change /veh PRSS12 (11739890_at) / RFU BIN1 (11741810_x_at) / Fold change /veh BIN1 (11741810_x_at) / RFU WNT11 (11732464_a_at) / Fold change /veh WNT11 (11732464_a_at) / RFU C10orf10 (11716521_a_at) / Fold change /veh C10orf10 (11716521_a_at) / RFU C5orf56 (11738089_at) / Fold change /veh C5orf56 (11738089_at) / RFU CYB561 (11721691_x_at) / Fold change /veh CYB561 (11721691_x_at) / RFU ANKRD19P (11752326_a_at) / Fold change /veh ANKRD19P (11752326_a_at) / RFU OR2T12 /// OR2T33 /// OR2T8 (11738714_s_at) / Fold change /veh OR2T12 /// OR2T33 /// OR2T8 (11738714_s_at) / RFU VCAN (11748164_a_at) / Fold change /veh VCAN (11748164_a_at) / RFU JSRP1 (11732532_at) / Fold change /veh JSRP1 (11732532_at) / RFU KRTAP10-11 (11738290_x_at) / Fold change /veh KRTAP10-11 (11738290_x_at) / RFU MYO3A (11730013_a_at) / Fold change /veh MYO3A (11730013_a_at) / RFU EBF3 (11725865_a_at) / Fold change /veh EBF3 (11725865_a_at) / RFU CAMK2N1 (11719241_x_at) / Fold change /veh CAMK2N1 (11719241_x_at) / RFU C5orf56 (11738088_a_at) / Fold change /veh C5orf56 (11738088_a_at) / RFU OLFML3 (11715873_a_at) / Fold change /veh OLFML3 (11715873_a_at) / RFU LOC100653217 /// NTM (11731650_a_at) / Fold change /veh LOC100653217 /// NTM (11731650_a_at) / RFU MAPK11 (11762145_a_at) / Fold change /veh MAPK11 (11762145_a_at) / RFU FIZ1 (11724087_x_at) / Fold change /veh FIZ1 (11724087_x_at) / RFU OASL (11726364_x_at) / Fold change /veh OASL (11726364_x_at) / RFU SOX15 (11748057_x_at) / Fold change /veh SOX15 (11748057_x_at) / RFU CD79A (11719716_a_at) / Fold change /veh CD79A (11719716_a_at) / RFU HIST1H1D (11736915_at) / Fold change /veh HIST1H1D (11736915_at) / RFU CASKIN2 (11723855_a_at) / Fold change /veh CASKIN2 (11723855_a_at) / RFU LOC730098 (11760151_x_at) / Fold change /veh LOC730098 (11760151_x_at) / RFU OR4N2 (11742367_at) / Fold change /veh OR4N2 (11742367_at) / RFU PRRT2 (11749266_a_at) / Fold change /veh PRRT2 (11749266_a_at) / RFU SNX32 (11753110_a_at) / Fold change /veh SNX32 (11753110_a_at) / RFU CDHR5 (11726645_a_at) / Fold change /veh CDHR5 (11726645_a_at) / RFU RCAN1 (11760418_a_at) / Fold change /veh RCAN1 (11760418_a_at) / RFU FAM167A (11723789_a_at) / Fold change /veh FAM167A (11723789_a_at) / RFU FAM26E (11764081_at) / Fold change /veh FAM26E (11764081_at) / RFU ISYNA1 (11749810_s_at) / Fold change /veh ISYNA1 (11749810_s_at) / RFU ACY1 (11761880_at) / Fold change /veh ACY1 (11761880_at) / RFU 11764098_at / Fold change /veh 11764098_at / RFU SAMD14 (11745864_x_at) / Fold change /veh SAMD14 (11745864_x_at) / RFU NPB (11741838_a_at) / Fold change /veh NPB (11741838_a_at) / RFU TMPRSS6 (11731388_a_at) / Fold change /veh TMPRSS6 (11731388_a_at) / RFU KRTAP10-2 (11738614_at) / Fold change /veh KRTAP10-2 (11738614_at) / RFU ARHGAP8 /// PRR5-ARHGAP8 (11727945_x_at) / Fold change /veh ARHGAP8 /// PRR5-ARHGAP8 (11727945_x_at) / RFU KRTAP5-7 /// NADSYN1 (11734609_at) / Fold change /veh KRTAP5-7 /// NADSYN1 (11734609_at) / RFU RASL12 (11751679_a_at) / Fold change /veh RASL12 (11751679_a_at) / RFU CDKN2B (11736163_a_at) / Fold change /veh CDKN2B (11736163_a_at) / RFU PRF1 (11729649_at) / Fold change /veh PRF1 (11729649_at) / RFU, ZNF638 /// ZNF638-IT1 / Fold change vs veh, ZNF638 /// ZNF638-IT1 / RFU, PANK3 / Fold change vs veh, PANK3 / RFU, SH3YL1 / Fold change vs veh, SH3YL1 / RFU, ZEB2 / Fold change vs veh, ZEB2 / RFU, NRIP1 / Fold change vs veh, NRIP1 / RFU, PTTG1IP / Fold change vs veh, PTTG1IP / RFU, CAPN2 / Fold change vs veh, CAPN2 / RFU, MED14 / Fold change vs veh, MED14 / RFU, SNORA58 / Fold change vs veh, SNORA58 / RFU, C1orf63 / Fold change vs veh, C1orf63 / RFU, LRRFIP1 / Fold change vs veh, LRRFIP1 / RFU, NDUFAF7 / Fold change vs veh, NDUFAF7 / RFU, SLC12A2 / Fold change vs veh, SLC12A2 / RFU, IBTK / Fold change vs veh, IBTK / RFU, ESF1 / Fold change vs veh, ESF1 / Fold change vs veh, TMEM50B / RFU, TAOK1 / Fold change vs veh, TAOK1 / RFU, ACBD3 / Fold change vs veh, ACBD3 / RFU, TMA16 / Fold change vs veh, TMA16 / RFU, RWDD3 / Fold change vs veh, RWDD3 / RFU, BCAT1 / Fold change vs veh, BCAT1 / RFU, EDEM3 / Fold change vs veh, EDEM3 / RFU, TMEM33 / Fold change vs veh, TMEM33 / RFU, WDR75 / Fold change vs veh, WDR75 / RFU, AHCTF1 / Fold change vs veh, AHCTF1 / RFU, TFRC / Fold change vs veh, TFRC / RFU, ZDHHC17 / Fold change vs veh, ZDHHC17 / RFU, NOM1 / Fold change vs veh, NOM1 / RFU, ARL8B / Fold change vs veh, ARL8B / RFU, ZBTB11 / Fold change vs veh, ZBTB11 / RFU, TAMM41 / Fold change vs veh, TAMM41 / RFU, KIAA1704 /// LOC100996395 / Fold change vs veh, KIAA1704 /// LOC100996395 / RFU, ING1 / Fold change vs veh, ING1 / RFU, TRMT61B / Fold change vs veh, TRMT61B / RFU, FUBP3 / Fold change vs veh, FUBP3 / RFU, TP53 / Fold change vs veh, TP53 / RFU, TNKS2 / Fold change vs veh, TNKS2 / RFU, ZFP14 / Fold change vs veh, ZFP14 / RFU, ACTR2 / Fold change vs veh, ACTR2 / RFU, PPP3R1 / Fold change vs veh, PPP3R1 / RFU, PIK3R1 / Fold change vs veh, PIK3R1 / RFU, HNRNPA1 / Fold change vs veh, HNRNPA1 / RFU, RNF170 / Fold change vs veh, RNF170 / RFU, ZNF28 / Fold change vs veh, ZNF28 / RFU, RNGTT / Fold change vs veh, RNGTT / RFU, OGT / Fold change vs veh, OGT / RFU, BRD1 / Fold change vs veh, BRD1 / RFU, MARS / Fold change vs veh, MARS / RFU, ZNF655 / Fold change vs veh, ZNF655 / RFU, FAHD1 / Fold change vs veh, FAHD1 / RFU, BDP1 / Fold change vs veh, BDP1 / RFU, LRRCC1 / Fold change vs veh, LRRCC1 / RFU, ARID1A / Fold change vs veh, ARID1A / RFU, ZNF146 / Fold change vs veh, ZNF146 / RFU, ZNF330 / Fold change vs veh, ZNF330 / RFU, GPN3 / Fold change vs veh, GPN3 / RFU, C9orf123 / Fold change vs veh, C9orf123 / RFU, N4BP2L2 / Fold change vs veh, N4BP2L2 / RFU, ARFIP1 / Fold change vs veh, ARFIP1 / RFU, FAM179B / Fold change vs veh, FAM179B / RFU, BCL10 / Fold change vs veh, BCL10 / RFU, UHRF1BP1L / Fold change vs veh, UHRF1BP1L / RFU, BET1 / Fold change vs veh, BET1 / RFU, CNOT2 / Fold change vs veh, CNOT2 / RFU, ZNF268 / Fold change vs veh, ZNF268 / Fold change vs veh, ZNF507 / RFU, DGCR2 / Fold change vs veh, DGCR2 / RFU, WDSUB1 / Fold change vs veh, WDSUB1 / Fold change vs veh, HSP90B1 /// MIR3652 / RFU, ADSS / Fold change vs veh, ADSS / RFU, GK / Fold change vs veh, GK / RFU, ZNF148 / Fold change vs veh, ZNF148 / RFU, TAF9 / Fold change vs veh, TAF9 / RFU, SLC1A5 / Fold change vs veh, SLC1A5 / RFU, SLMO2 / Fold change vs veh, SLMO2 / RFU, ABCC4 / Fold change vs veh, ABCC4 / RFU, LOC101060439 /// RAP1B / Fold change vs veh, LOC101060439 /// RAP1B / RFU, RFX7 / Fold change vs veh, RFX7 / RFU, GTPBP10 / Fold change vs veh, GTPBP10 / RFU, CNEP1R1 / Fold change vs veh, CNEP1R1 / RFU, BIVM-ERCC5 /// ERCC5 / Fold change vs veh, BIVM-ERCC5 /// ERCC5 / RFU, ILF3 / Fold change vs veh, ILF3 / RFU 11762660_at / Fold change /veh 11762660_at / RFU VCAN (11757783_s_at) / Fold change /veh VCAN (11757783_s_at) / RFU DDX43 (11728927_at) / Fold change /veh DDX43 (11728927_at) / RFU KRT8 (11758188_x_at) / Fold change /veh KRT8 (11758188_x_at) / RFU NKD1 (11759106_at) / Fold change /veh NKD1 (11759106_at) / RFU SRD5A1 (11742802_a_at) / Fold change /veh SRD5A1 (11742802_a_at) / RFU TPSAB1 /// TPSB2 (11721975_s_at) / Fold change /veh TPSAB1 /// TPSB2 (11721975_s_at) / RFU GSTM3 (11746129_a_at) / Fold change /veh GSTM3 (11746129_a_at) / RFU IL23R (11737362_x_at) / Fold change /veh IL23R (11737362_x_at) / RFU TMEM51 (11727254_a_at) / Fold change /veh TMEM51 (11727254_a_at) / RFU PIWIL2 (11732686_x_at) / Fold change /veh PIWIL2 (11732686_x_at) / RFU ORM1 (11744905_x_at) / Fold change /veh ORM1 (11744905_x_at) / RFU CCDC152 (11743942_at) / Fold change /veh CCDC152 (11743942_at) / RFU ECM1 (11717891_a_at) / Fold change /veh ECM1 (11717891_a_at) / RFU IL23R (11748794_a_at) / Fold change /veh IL23R (11748794_a_at) / RFU TNFAIP8L3 (11732012_x_at) / Fold change /veh TNFAIP8L3 (11732012_x_at) / RFU MBOAT4 (11741988_at) / Fold change /veh MBOAT4 (11741988_at) / RFU 11764193_at / Fold change /veh 11764193_at / RFU TMEM53 (11763286_at) / Fold change /veh TMEM53 (11763286_at) / RFU MAGEB2 (11727129_at) / Fold change /veh MAGEB2 (11727129_at) / RFU TMEM200A (11744735_a_at) / Fold change /veh TMEM200A (11744735_a_at) / RFU CCDC152 (11751479_a_at) / Fold change /veh CCDC152 (11751479_a_at) / RFU FAM211A (11726209_a_at) / Fold change /veh FAM211A (11726209_a_at) / RFU RGS16 (11746705_a_at) / Fold change /veh RGS16 (11746705_a_at) / RFU VCAN (11755009_s_at) / Fold change /veh VCAN (11755009_s_at) / RFU RHOB (11743442_s_at) / Fold change /veh RHOB (11743442_s_at) / RFU RGS16 (11720943_a_at) / Fold change /veh RGS16 (11720943_a_at) / RFU RGS16 (11720944_at) / Fold change /veh RGS16 (11720944_at) / RFU, VPS4B / Fold change vs veh, VPS4B / RFU, CREB1 / Fold change vs veh, CREB1 / RFU, DNAJC13 / Fold change vs veh, DNAJC13 / RFU, GNAQ / Fold change vs veh, GNAQ / RFU, CDK5R1 / Fold change vs veh, CDK5R1 / RFU, ZRANB3 / Fold change vs veh, ZRANB3 / RFU, CUL4A / Fold change vs veh, CUL4A / RFU, CCNY / Fold change vs veh, CCNY / RFU, UFL1 / Fold change vs veh, UFL1 / RFU, COG3 / Fold change vs veh, COG3 / RFU, DIAPH2 / Fold change vs veh, DIAPH2 / RFU, SKA2 / Fold change vs veh, SKA2 / RFU, AFF3 / Fold change vs veh, AFF3 / RFU, LMF1 / Fold change vs veh, LMF1 / RFU, IPO11 / Fold change vs veh, IPO11 / RFU, DFFB / Fold change vs veh, DFFB / RFU, FOXP1 / Fold change vs veh, FOXP1 / RFU, CARD8 / Fold change vs veh, CARD8 / RFU, STRN3 / Fold change vs veh, STRN3 / RFU, ADK / Fold change vs veh, ADK / RFU, RASSF2 / Fold change vs veh, RASSF2 / RFU, WIPF1 / Fold change vs veh, WIPF1 / RFU, LARP1B / Fold change vs veh, LARP1B / RFU, RASA1 / Fold change vs veh, RASA1 / RFU, RB1 / Fold change vs veh, RB1 / RFU, PPFIA1 / Fold change vs veh, PPFIA1 / RFU, MAT2A / Fold change vs veh, MAT2A / RFU, CCT5 / Fold change vs veh, CCT5 / RFU, WDR92 / Fold change vs veh, WDR92 / RFU, CUX1 / Fold change vs veh, CUX1 / RFU, TTC7A / Fold change vs veh, TTC7A / RFU, TMEM135 / Fold change vs veh, TMEM135 / RFU, DEPTOR / Fold change vs veh, DEPTOR / RFU, CPM / Fold change vs veh, CPM / RFU, DNAJB6 / Fold change vs veh, DNAJB6 / RFU, CACNA2D3 / Fold change vs veh, CACNA2D3 / RFU, DTX4 / Fold change vs veh, DTX4 / RFU, TFCP2 / Fold change vs veh, TFCP2 / RFU, GMCL1 /// GMCL1P1 / Fold change vs veh, GMCL1 /// GMCL1P1 / RFU, AEBP2 / Fold change vs veh, AEBP2 / RFU, SNHG1 /// SNORD22 /// SNORD25 /// SNORD26 /// SNORD27 /// SNORD28 /// SNORD29 /// SNORD31 / Fold change vs veh, SNHG1 /// SNORD22 /// SNORD25 /// SNORD26 /// SNORD27 /// SNORD28 /// SNORD29 /// SNORD31 / Fold change (Aza/veh), C12orf56 (ProbeSet 11735607_a_at) / Fold change (ACY-1035/veh), C12orf56 (ProbeSet 11735607_a_at) / Fold change (Aza/veh), FGFR1OP (ProbeSet 11751329_s_at) / Fold change (ACY-1035/veh), FGFR1OP (ProbeSet 11751329_s_at) / Fold change (Aza/veh), VPS36 (ProbeSet 11739960_a_at) / Fold change (ACY-1035/veh), VPS36 (ProbeSet 11739960_a_at) / RFU SYPL1 (11715823_x_at) / Fold change /veh SYPL1 (11715823_x_at) / RFU IGFBP7 (11715501_s_at) / Fold change /veh IGFBP7 (11715501_s_at) / RFU REEP3 (11722064_at) / Fold change /veh REEP3 (11722064_at) / RFU IGLL1 (11728026_x_at) / Fold change /veh IGLL1 (11728026_x_at): dose or concentration left out as unconfirmed",
  "settings": "MV-4-11 cells, 48 hours",
  "data": [
    {"smiles": "Nc1ccc(-c2cccs2)cc1NC(=O)c1ccc2c(c1)cc(C1CC1)n2CCN1CCOCC1", "note": "[ACY-1035]", "values": [
      {"measurement": "Fold change /veh HIST1H1D (11736915_at)", "result": 0.94}
    ]}
  ]
}
